Reference: patent publication US11324744B2, “Methods of use and pharmaceutical combinations of histone deacetylase inhibitors and CD20 inhibitory antibodies” (Acetylon Pharmaceuticals Inc., priority 2016, dated 2022)

Assays:
CD20 in Raji cells = experiment: Cell surface abundance of CD20 by staining and flow cytometry in Raji cells; type: cell-based, human; settings: 0.25-4.0 μM, 48 hours, MFI, FIG. 2A/2B
Protocol: (§1) Cells were treated with increasing concentrations of Compound A (i.e., 0.25 μM, 0.5 μM, 1.0 μM, 2.0 μM, and 4.0 μM) for 48 hours and processed for cell surface abundance of CD20 protein and mRNA in Raji cells. The treated Raji cells were stained for IgG2bK-APC and CD20-APC. The dotted line indicates median of DMSO treatment. The quantification of mean fluorescence intensity (MFI) following cell surface staining and flow cytometry of Raji cells is shown in FIG. 2B. Each sample was background subtracted, where the IgG2bK-APC median MFI in Raji cells was used as the background. […] Together, increased CD20 expression triggered by Compound A can be a potential mechanism for the in vivo combination effect on the Raji cell model. Compound A induced CD20 mRNA expression and cell surface abundance of CD20 on Raji cells. That can be a potential mechanism for the synergistic effect of Compound A with rituximab.

CD20 mRNA in Raji cells = experiment: CD20 mRNA expression relative to RPLP1 in Raji cells; type: cell-based, human; settings: 0.25-4.0 μM, 48 hours, FIG. 2D
Protocol: as §1

CD20 in Jeko cells = experiment: Cell surface abundance of CD20 by staining and flow cytometry in Jeko cells; type: cell-based; settings: 0.25-4.0 μM, 48 hours, MFI, FIG. 3A/3B
Protocol: (§2) Cells were treated with increasing concentrations of Compound A (i.e., 0.25 μM, 0.5 μM, 1.0 μM, 2.0 μM, and 4.0 μM) for 48 hours and processed for cell surface abundance of CD20 protein and mRNA in Jeko cells. The treated Jeko cells were stained for IgG2bK-APC and CD20-APC. The dotted line indicates median of DMSO treatment. The quantification of mean fluorescence intensity (MFI) following cell surface staining and flow cytometry of Jeko cells is shown in FIG. 3B. Each sample was background subtracted, where the IgG2bK-APC median MFI in Jeko cells was used as the background. […] Compound A induced CD20 mRNA expression and cell surface abundance of CD20 on Jeko cells. That can be a potential mechanism for the synergistic effect of Compound A with rituximab.

CD20 mRNA in Jeko cells = experiment: CD20 mRNA expression relative to RPLP1 in Jeko cells; type: cell-based; settings: 0.25-4.0 μM, 48 hours, FIG. 3D
Protocol: as §2

O=C(CCCCCCNC(=O)c1cnc(N(c2ccccc2)c2ccccc2Cl)nc1)NO [Compound A, 2-((2-chlorophenyl)(phenyl)amino)-N-(7-(hydroxyamino)-7-oxoheptyl)pyrimidine-5-carboxamide]
induced: cell surface abundance of CD20 (CD20 in Raji cells) | CD20 mRNA expression (CD20 mRNA in Raji cells) | cell surface abundance of CD20 (CD20 in Jeko cells) | CD20 mRNA expression (CD20 mRNA in Jeko cells)
